Experimental data from BindingDB's records for doi:10.1021/jm960873x (University of California, 1997).

Columns and labels:
[1] = Observed inhibition activity against protein phosphatase 1 (PP1)
[2] = Inhibition activity against protein phosphatase 1 (PP1), activity taken from literature
[3] = Observed inhibition activity of the compounds against protein phosphatases 1 (PP1)

SMILES	IC50 [1] [nM]	IC50 [2] [nM]	IC50 [3] [nM]
C/C=C1/C(=O)N[C@@H](C(=O)O)[C@H](C)C(=O)N[C@@H](CCCNC(=N)N)C(=O)N[C@@H](/C=C/C(C)=C/[C@H](C)[C@H](Cc2ccccc2)OC)[C@H](C)C(=O)N[C@@H](C(=O)O)CCC(=O)N1C [(5R,6S,9S,12S,13S,16R)-2-Eth-(Z)-ylidene-9-(3-guanidino-propyl)-12-((1E,3E)-(5S,6S)-6-methoxy-3,5-dimethyl-7-phenyl-hepta-1,3-dienyl)-1,6,13-trimethyl-3,7,10,14,19-pentaoxo-1,4,8,11,15pentaaza-cyclononadecane-5,16-dicarboxylic acid]	0.42	3	
COC[C@@H]([C@H](O)[C@H](O)C(=O)N[C@H](C)C[C@H](C)c1nc(/C=C/CC2O[C@]3(CC(O)C2C)OC([C@H](C[C@H](O)[C@H](C)[C@H](O)[C@H](C)/C=C(C)/C(C)=C/C=C/C(C)=C\C#N)OC)[C@H](OP(=O)(O)O)C3(C)C)co1)N(C)C (some centres undefined) [Calyculin C]			1.5
CO[C@H]([C@H](O)CC(=O)[C@@H](C)[C@@H](O)CC[C@@H](C)[C@@H]1O[C@]2(CC[C@@H](C)[C@H](CC[C@H](C)C(C)=O)O2)CC[C@@H]1C)[C@H](OC(=O)C[C@@H](O)C1=C(C)C(=O)OC1=O)C(C)C [TAUTOMYCIN]			0.67
